ChEMBL document CHEMBL6074662, “Antibacterial, Antibiofilm, and Anti-inflammatory Effects of a Novel Thrombin-Derived Peptide in Sepsis Models: Insights into Underlying Mechanisms” (J Med Chem, 2024)
Values after ≈ are worked out from the molar mass of the structure shown. Active and inactive are the calls of the source. The rule behind the calls is not given here. Where a SMILES comes first, the peptide text is derived from it. Bridges are numbered along the chain shown (N, C = ends). [ ]: non-standard residue; d: D form. The star is where a group is joined. X1 = CC[C@H](C)CCCCC(=O)*; dDab = NCC[C@@H](N)C(=O)O; Dab = NCC[C@H](N)C(=O)O

Experiments:
Acinetobacter baumannii [1] = experiment: Antibacterial activity against multidrug-resistant Acinetobacter baumannii 329-97 incubated for 24 hrs by CLSI based broth microdilution method; type: functional
Escherichia coli [2] = experiment: Induction of inner membrane permeabilization in Escherichia coli KCTC 1682 at MIC by PI staining based flow cytometry (reference value: 1.51 %); type: functional
Enterococcus faecium = experiment: Antibacterial activity against vancomycin-resistant Enterococcus faecium ATCC 51559 incubated for 24 hrs by CLSI based broth microdilution method; type: functional
Acinetobacter baumannii [3] = experiment: Antibacterial activity against multidrug-resistant Acinetobacter baumannii 329-53 incubated for 24 hrs by CLSI based broth microdilution method; type: functional
Acinetobacter baumannii [4] = experiment: Antibacterial activity against carbapenem-resistant Acinetobacter baumannii NMS 1915 incubated for 24 hrs by CLSI based broth microdilution method; type: functional
Acinetobacter baumannii [5] = experiment: Antibacterial activity against carbapenem-resistant Acinetobacter baumannii CCARM 12005 incubated for 24 hrs by CLSI based broth microdilution method; type: functional
[6] = Hemolytic activity in sheep RBC incubated for 1 hr by absorbance based assay; type: toxicity, cell-based, Ovis aries; conditions: erythrocyte
Acinetobacter baumannii [7] = experiment: Antibacterial activity against carbapenem-resistant Acinetobacter baumannii NMS 1707 incubated for 24 hrs by CLSI based broth microdilution method; type: functional
Pseudomonas aeruginosa [8] = experiment: Antibacterial activity against multi-drug resistant Pseudomonas aeruginosa CCARM 2095 incubated for 24 hrs by broth microdilution method; type: functional
Staphylococcus aureus [9] = experiment: Antibacterial activity against methicillin-resistant Staphylococcus aureus CCARM 3089 incubated for 24 hrs by broth microdilution method; type: functional
Escherichia coli [10] = experiment: Induction of resistance development in Escherichia coli KCTC 1682 assessed as fold increase in MIC at 0.5 times MIC measured after 30 passages relative to control; type: functional
Staphylococcus aureus [11] = experiment: Antibacterial activity against methicillin-resistant Staphylococcus aureus CCARM 3090 incubated for 24 hrs by CLSI based broth microdilution method; type: functional
Pseudomonas aeruginosa [12] = experiment: Antibacterial activity against Pseudomonas aeruginosa KCTC 1637 incubated for 24 hrs by CLSI based broth microdilution method; type: functional
[13] = Effect on secondary structure of drug in LPS assessed as fold increase in formation of alpha-helical conformation at 150 uM by CD analysis relative to HVF18; type: physicochemical
Pseudomonas aeruginosa [14] = experiment: Antibacterial activity against multidrug-resistant Pseudomonas aeruginosa CCARM 2095 incubated for 24 hrs by CLSI based broth microdilution method; type: functional
[15] = Hemolytic activity in sheep RBC at 256 uM incubated for 1 hr by absorbance based assay; type: toxicity, cell-based, Ovis aries, Erythrocyte; conditions: sheep red blood cells, read-out: Activity
[16] = tested on: Staphylococcus epidermidis; experiment: Antibacterial activity against Staphylococcus epidermidis KCTC 1917 incubated for 24 hrs by CLSI based broth microdilution method; type: functional
Salmonella typhimurium = experiment: Antibacterial activity against Salmonella typhimurium KCTC 1926 incubated for 24 hrs by CLSI based broth microdilution method; type: functional, Salmonella enterica subsp. enterica serovar Typhimurium; conditions: Salmonella enterica
Bacillus subtilis = experiment: Antibacterial activity against Bacillus subtilis KCTC 3068 incubated for 24 hrs by CLSI based broth microdilution method; type: functional
[17] = Hydrophobicity of compound assessed as retention time by RP-HPLC analysis; type: physicochemical
[18] = Effect on secondary structure of drug in SDS assessed as fold increase in formation of alpha-helical conformation at 150 uM by CD analysis relative to HVF18; type: physicochemical
[19] = Effect on secondary structure of drug in PBS assessed as formation of random coil structure at 150 uM by CD analysis; type: physicochemical; conditions: buffer
Staphylococcus aureus [20] = experiment: Antibacterial activity against methicillin-resistant Staphylococcus aureus CCARM 3095 incubated for 24 hrs by CLSI based broth microdilution method; type: functional
Staphylococcus aureus [21] = experiment: Antibacterial activity against Staphylococcus aureus KCTC 1621 incubated for 24 hrs by CLSI based broth microdilution method; type: functional
[22] = Effect on secondary structure of drug in TFE assessed as fold increase in formation of alpha-helical conformation at 150 uM by CD analysis relative to HVF18; type: physicochemical
Pseudomonas aeruginosa [23] = experiment: Antibacterial activity against multidrug-resistant Pseudomonas aeruginosa CCARM 2109 incubated for 24 hrs by CLSI based broth microdilution method; type: functional
Staphylococcus aureus [24] = experiment: Antibacterial activity against methicillin-resistant Staphylococcus aureus CCARM 3089 incubated for 24 hrs by CLSI based broth microdilution method; type: functional
Escherichia coli [25] = experiment: Antibacterial activity against Escherichia coli KCTC 1682 incubated for 24 hrs by CLSI based broth microdilution method; type: functional
Lipopolysaccharide (LPS) = experiment: Disaggregation of FITC-labeled Escherichia coli 0111:B4 LPS assessed as increase in fluorescence intensity at higher concentration
Staphylococcus aureus [26] = experiment: Bactericidal activity against methicillin-resistant Staphylococcus aureus CCARM 3089 at 128 to 512 uM incubated for 12 hrs by time-kill assay; type: functional, organism-based; conditions: dose 128-512 µM
Pseudomonas aeruginosa [27] = experiment: Bactericidal activity against multidrug-resistant Pseudomonas aeruginosa CCARM 2095 at 128 to 512 uM incubated for 12 hrs by time-kill assay; type: functional, organism-based; conditions: dose 128-512 µM

Compound `CC[C@H](C)[C@H](NC(=O)CN)C(=O)NCC(=O)N[C@@H](C)C(=O)N[C@H](C(=O)N[C@@H](CC(C)C)C(=O)N[C@@H](CCCCN)C(=O)N[C@H](C(=O)N[C@@H](CC(C)C)C(=O)N[C@H](C(=O)N[C@H](C(=O)NCC(=O)N[C@@H](CC(C)C)C(=O)N1CCC[C@H]1C(=O)N[C@@H](C)C(=O)N[C@@H](CC(C)C)C(=O)N[C@H](C(=O)N[C@@H](CO)C(=O)N[C@@H](Cc1c[nH]c2ccccc12)C(=O)N[C@H](C(=O)N[C@@H](CCCCN)C(=O)N[C@@H](CCCNC(=N)N)C(=O)N[C@@H](CCCCN)C(=O)N[C@@H](CCCNC(=N)N)C(=O)N[C@@H](CCC(N)=O)C(=O)N[C@@H](CCC(N)=O)C(N)=O)[C@@H](C)CC)[C@@H](C)CC)[C@@H](C)O)[C@@H](C)O)C(C)C)C(C)C` [MELITTIN] has an MIC (Acinetobacter baumannii [1]) of 2 µM (≈ 5.69 µg/mL), an Activity (Escherichia coli [2]) of roughly 100% and an MIC (Enterococcus faecium) of 2 µM (≈ 5.69 µg/mL). The MIC (Acinetobacter baumannii [3]) was 2 µM (≈ 5.69 µg/mL), the MIC (Acinetobacter baumannii [4]) was 4 µM (≈ 11.4 µg/mL) and the MIC (Acinetobacter baumannii [5]) was 8 µM (≈ 22.8 µg/mL). The HC10 [6] was 2.2 µM and the MIC (Acinetobacter baumannii [7]) was 8 µM (≈ 22.8 µg/mL).

For `O=C(O)c1cn(C2CC2)c2cc(N3CCNCC3)c(F)cc2c1=O` [CIPROFLOXACIN], the MIC (Pseudomonas aeruginosa [8]) was 1020 µM (≈ 339 µg/mL), the MIC (Staphylococcus aureus [9]) was 1020 µM (≈ 339 µg/mL) and the “fold change (FC)” value (Escherichia coli [10]) was 8192.

For H-GVFRLKKWIRKVIRRWGR-NH2, the MIC (Staphylococcus aureus [11]) was 4 µM, the MIC (Pseudomonas aeruginosa [12]) was 8 µM and the “fold change (FC)” value [13] was ~ 5. For the same compound, the MIC (Acinetobacter baumannii [1]) was 2 µM, the MIC (Pseudomonas aeruginosa [14]) was 2 µM and the hemolysis at 1 h, 256 µM [15] was 20.4%. The MIC [16] was 8 µM, the MIC (Salmonella typhimurium) was 4 µM and the MIC (Bacillus subtilis) was 4 µM. It also gave an MIC (Enterococcus faecium) of 4 µM, an MIC (Acinetobacter baumannii [3]) of 8 µM and a Retention_time [17] of 22.99 min. The “fold change (FC)” value [18] was ~ 5, the MIC (Acinetobacter baumannii [4]) was 4 µM and the Activity [19] was “Active”. The MIC (Staphylococcus aureus [20]) was 8 µM, the MIC (Staphylococcus aureus [21]) was 8 µM and the “fold change (FC)” value [22] was ~ 5. For the same compound, the MIC (Pseudomonas aeruginosa [23]) was 16 µM, the MIC (Acinetobacter baumannii [5]) was 8 µM and the HC10 [6] was 116 µM. For the same compound, the MIC (Acinetobacter baumannii [7]) was 8 µM, the MIC (Staphylococcus aureus [24]) was 4 µM and the MIC (Escherichia coli [25]) was 16 µM.

In the case of H-GVFRLKKWIQKVIKQWGK-NH2, the MIC (Staphylococcus aureus [11]) is reported as 8 µM, the MIC (Pseudomonas aeruginosa [12]) is reported as 8 µM and the “fold change (FC)” value [13] is reported as ~ 5. For the same compound, the MIC (Acinetobacter baumannii [1]) was 1 µM, the MIC (Pseudomonas aeruginosa [14]) was 4 µM and the hemolysis at 1 h, 256 µM [15] was 12.2%. The MIC [16] was 4 µM, the MIC (Salmonella typhimurium) was 4 µM and the MIC (Bacillus subtilis) was 4 µM. The MIC (Enterococcus faecium) was 8 µM, the MIC (Acinetobacter baumannii [3]) was 8 µM and the Retention_time [17] was 25.16 min. The “fold change (FC)” value [18] was ~ 5, the MIC (Acinetobacter baumannii [4]) was 2 µM and the Activity [19] was “Active”. The MIC (Staphylococcus aureus [20]) was 8 µM, the MIC (Staphylococcus aureus [21]) was 8 µM and the “fold change (FC)” value [22] was ~ 5. For the same compound, the MIC (Pseudomonas aeruginosa [23]) was 16 µM, the MIC (Acinetobacter baumannii [5]) was 4 µM and the HC10 [6] was 212 µM. The MIC (Acinetobacter baumannii [7]) was 2 µM, the MIC (Staphylococcus aureus [24]) was 8 µM and the MIC (Escherichia coli [25]) was 8 µM.

In the case of `CC(C)CCCCC(=O)N[C@@H](CCN)C(=O)N[C@H](C(=O)N[C@@H](CCN)C(=O)N[C@H]1CCNC(=O)[C@H]([C@@H](C)O)NC(=O)[C@H](CCN)NC(=O)[C@H](CCN)NC(=O)[C@H](CC(C)C)NC(=O)[C@@H](Cc2ccccc2)NC(=O)[C@@H](CCN)NC1=O)[C@@H](C)O.CC[C@H](C)CCCCC(=O)N[C@@H](CCN)C(=O)N[C@H](C(=O)N[C@@H](CCN)C(=O)N[C@H]1CCNC(=O)[C@H]([C@@H](C)O)NC(=O)[C@H](CCN)NC(=O)[C@H](CCN)NC(=O)[C@H](CC(C)C)NC(=O)[C@@H](Cc2ccccc2)NC(=O)[C@@H](CCN)NC1=O)[C@@H](C)O` (X1-[Dab]T[Dab][Dab][dDab][dF]L[Dab][Dab]T; lactam 4-C), the Activity (Lipopolysaccharide (LPS)) is reported as “inactive”.

For `Cc1onc(-c2ccccc2)c1C(=O)N[C@@H]1C(=O)N2[C@@H]1SC(C)(C)[C@@H]2C(=O)O` [OXACILLIN], the MIC (Pseudomonas aeruginosa [8]) was 4100 µM (≈ 1640 µg/mL), the MIC (Staphylococcus aureus [9]) was 2050 µM (≈ 822 µg/mL) and the Activity (Staphylococcus aureus [26]) was “inactive”. The Activity (Pseudomonas aeruginosa [27]) was “inactive”.
